From patent US20060247263A1, “Substituted heterocyclic compounds and methods of use” (Amgen Inc., priority 2005, published 2006)

Test system: LPS induced TNF release
Experiment: Lipopolysaccharide-Activated THP1 Cell TNF Production Assay
Format: cell-based
Settings: Homo sapiens, THP-1, THP1 cells, 3 h at 37° C., secreted TNF-α
Experimental: Lipopolysaccharide-Activated THP1 Cell TNF Production Assay
THP1 cells are resuspended in fresh THP1 media (RPMI 1640, 10% heat-inactivated FBS, 1XPGS, 1XNEAA, plus 30 μM βME) at a concentration of 1E6/mL. One hundred microliters of cells per well are plated in a polystyrene 96-well tissue culture. One microgram per mL of bacterial LPS is prepared in THP1 media and is transferred to the wells. Test compounds are dissolved in 100% DMSO and are serially diluted 3 fold in a polypropylene 96-well microtiter plate (drug plate). HI control and LO control wells contain only DMSO. One microliter of test compound from the drug plate followed by 10 μL of LPS are transferred to the cell plate. The treated cells are induced to synthesize and secrete TNF-α at 37° C. for 3 h. Forty microliters of conditioned media are transferred to a 96-well polypropylene plate containing 110 μL of ECL buffer (50 mM Tris-HCl pH 8.0, 100 mM NaCl, 0.05% Tween 20, 0.05% NaN3 and 1% FBS) supplemented with 0.44 nM MAB610 monoclonal Ab (R&D Systems), 0.34 nM ruthenylated AF210NA polyclonal Ab (R&D Systems) and 44 μg/mL sheep anti-mouse M280 Dynabeads (Dynal). After a 2 h incubation at RT with shaking, the reaction is read on the ECL M8 Instrument (IGEN Inc.). A low voltage is applied to the ruthenylated TNF-α immune complexes, which in the presence of TPA (the active component in Origlo), results in a cyclical redox reaction generating light at […]. The amount of secreted TNF-α in the presence of compound compared with that in the presence of DMSO vehicle alone (HI control) is calculated using the formula:% control (POC)=(cpd−average LO)/(average HI−average LO)*100. Data (consisting of POC and inhibitor concentration in μM) is fitted to a 4-parameter equation (y=A+((B−A)/(1+((x/C)ˆD))), where A is the minimum y (POC) value, B is the maximum y (POC), C is the x (cpd concentration) at the point of inflection and D is the slope factor) using a Levenburg-Marquardt non-linear regression algorithm.

Compound | IC50 [µM]
CN(c1cc(-c2ccccc2)c2ncn(C)c2c1)c1ccnc(NC2CCNCC2)n1 | ≤ 20
CN(c1cc(-c2ccccc2)c2ncn(C)c2c1)c1ccnc(NC2CCC(N)CC2)n1 (stereo not shown) [N2-((1 s,4s)-4-aminocyclohexyl)-N-4-methyl-N-4-(3-methyl-7-phenyl-3H-benzo[d]imidazol-5-yl)pyrimidine-2,4-diamine] | ≤ 20
CN(c1cc(-c2ccccc2)c2ncn(C)c2c1)c1ccnc(NC2CCN(C(=O)OC(C)(C)C)CC2)n1 [tert-Butyl 4-(4-(methyl(3-methyl-7-phenyl-3H-benzo[d]imidazol-5-yl)amino)-pyrimidin-2-ylamino)piperidine-1-carboxylate] | ≤ 20
CC(C)CNc1nccc(N(C)c2cc(-c3ccccc3)c3ncn(C)c3c2)n1 [N2-isobutyl-N-4-methyl-N-4-(3-methyl-7-phenyl-3H-benzo[d]imidazol-5-yl)-pyrimidine-2,4-diamine] | ≤ 20
CC(Cc1cccc(CN)c1)Nc1nccc(N(C)c2cc(-c3ccccc3)c3c(c2)ncn3C)n1 (stereo not shown) [N2-(1-(3-(aminomethyl)phenyl)propan-2-yl)-N-4-methyl-N-4-(1-methyl-7-phenyl-1H-benzo[d]imidazol-5-yl)pyrimidine-2,4-diamine] | ≤ 20
CN(c1cc(-c2ccccc2)c2ncn(C)c2c1)c1ccnc(NCCOc2ccccc2)n1 [N-4-methyl-N-4-(3-methyl-7-phenyl-3H-benzo[d]imidazol-5-yl)-N-2-(2-phenoxy-ethyl)pyrimidine-2,4-diamine] | ≤ 20
CN(c1cc(-c2ccccc2)c2ncn(C)c2c1)c1ccnc(NCCc2ccccc2Cl)n1 [N2-(2-chlorophenethyl)-N-4-methyl-N-4-(3-methyl-7-phenyl-3H-benzo[d]imidazol-5-yl)pyrimidine-2,4-diamine] | ≤ 20
CN(c1cc(-c2ccccc2)c2nc[nH]c2c1)c1ccnc(NCCc2cccnc2)n1 [N4-Methyl-N-4-(7-phenyl-3H-benzo[d]imidazol-5-yl)-N-2-(2-(pyridin-3-yl)ethyl)-pyrimidine-2,4-diamine] | ≤ 20
CN(c1cc(-c2ccccc2)c2ncn(C)c2c1)c1ccnc(NCCc2cccnc2)n1 [N4-methyl-N-4-(3-methyl-7-phenyl-3H-benzo[d]imidazol-5-yl)-N-2-(2-(pyridin-3-yl)ethyl)pyrimidine-2,4-diamine] | ≤ 20

Second part, the molecule after the results:

IC50 [µM] | Compound
≤ 20 | CC(Cc1cccc(CN)c1)Nc1nccc(N(C)c2cc(-c3ccccc3)c3ncn(C)c3c2)n1 (stereo not shown) [N2-(1-(3-(Aminomethyl)phenyl)propan-2-yl)-N-4-methyl-N-4-(3-methyl-7-phenyl-3H-benzo[d]imidazol-5-yl)pyrimidine-2,4-diamine]
≤ 20 | C[C@H](N)c1cccc(C[C@H](C)Nc2nccc(N(C)c3cc(-c4ccccc4)c4ncn(C)c4c3)n2)c1 [N2-((S)-1-(3-((S)-1-Aminoethyl)phenyl)propan-2-yl)-N-4-methyl-N-4-(3-methyl-7-phenyl-3H-benzo[d]imidazol-5-yl)pyrimidine-2,4-diamine]
≤ 20 | CC(Cc1cccc(CN=[N+]=[N-])c1)Nc1nccc(N(C)c2cc(-c3ccccc3)c3ncn(C)c3c2)n1 (stereo not shown) [N2-(1-(3-(Azidomethyl)phenyl)propan-2-yl)-N-4-methyl-N-4-(3-methyl-7-phenyl-3H-benzo[d]imidazol-5-yl)pyrimidine-2,4-diamine]
≤ 20 | CC(Cc1cccc(CO)c1)Nc1nccc(N(C)c2cc(-c3ccccc3)c3ncn(C)c3c2)n1 (stereo not shown) [(3-(2-(4-(Methyl(3-methyl-7-phenyl-3H-benzo[d]imidazol-5-yl)amino)pyrimidin-2-ylamino)propyl)phenyl)methanol]
